Data from a melting point compilation (Tetko et al.; mined from patent text by program, amines drawn as free bases though some values may be those of a salt).

melting point [°C]	SMILES
240 to 242	O=C(CCn1cnc2c(=O)[nH]cnc21)NC(Cc1ccccc1)C(=O)O (centres undefined)
> 300	Cn1cc(-c2cc3cccnc3[nH]2)c2cc(C(=O)O)ccc21
42 to 43	CCOC(=O)C1COc2c(C(=O)c3ccccc3)cccc21 (centres undefined)
116	COc1ccc(Sc2nc(-c3ccccc3)n(Cc3cc4c(cc3Cl)OCO4)c2C=O)cc1
260 to 263	CCOP(=O)(Cc1nnc2c(=O)[nH]c3cc(C(F)(F)F)c(N)cc3n12)OCC
120 to 122	COCc1cccc(-c2ccc3nc(-c4ccc(Cl)cc4)c(Cl)n3c2)c1
137	CC(C)(C)OC(=O)Nc1ccc(-c2ccccc2)cc1N
232 to 235	COc1ccc(-c2nn(C(C)c3oc4ccccc4c(=O)c3-c3cccc(F)c3)c3ncnc(N)c23)cc1OC (centres undefined)
235 to 236	O=C(O)CCC(=O)NCc1ccc2c(c1)-c1[nH]nc(-c3ccsc3)c1C2
142 to 143	COc1ccc(C=CC(=O)N[C@@H](Cc2ccccc2)C(=O)CSCc2ccsc2)c(OC)c1
210 to 213	Cn1cc(C2=C(c3cn(CO)c4ccccc34)C(=O)NC2=O)c2ccc([N+](=O)[O-])cc21
178 to 180	COc1cc(Cl)ccc1C(=O)Nc1ccc(-n2nc(C(F)(F)F)cc2C(F)(F)F)cc1
105 to 107	CC(C)c1nn(Cc2ccc(Cl)cc2Cl)cc1CCCOc1cc(CCC(=O)O)n(-c2ccccc2)n1
220 to 222	COC(COC(=O)C1=C(C)NC2=C(C(=O)CN(Cc3ccccc3)C2)C1c1c(F)c(F)c(F)c(F)c1F)c1ccccc1 (centres undefined)
> 210	COc1ccc2ccc(O)c(-c3nnc(Cl)c4ccccc34)c2c1
97 to 98	CCc1nc(-c2cc3cc(OCCNC[C@H](O)COc4ccccc4)ccc3o2)no1
136 to 141	CCCC(=O)SCC(Cc1ccccc1)C(=O)Nc1cccc(C(=O)O)c1C (centres undefined)
139 to 141	CN1C(=O)c2cccc(C(F)(F)F)c2Sc2ccccc21

melting point [°C]	SMILES
137 to 139	O=C1C(=Cc2cccc(Cl)c2)SC(c2cccc(Cl)c2)N1CCCN1CCCCC1 (centres undefined)
123 to 129	Cc1cccc(Nc2ncnc3ccc(CSc4nc5ccccc5[nH]4)cc23)c1
49	CCOC(=O)C(C)Oc1ccc(Oc2nc3ccc(Cl)cc3s2)cc1 (centres undefined)
107	CCOC(=O)C(=CC=CN(CC)CCO)S(=O)(=O)c1ccccc1
138 to 139	CSc1nnc(-c2ccc3occ(-c4ccc(OC(F)(F)F)cc4)c3c2)o1
219 to 221	Cn1c2ccccc2c(=O)c2c(Br)cccc21
104 to 109	CCOC(=O)c1ccc(C(C)(C)C(N)=O)cc1
220 to 221	COc1ccc(C(=O)Nc2ccccc2)cc1Nc1cccc([N+](=O)[O-])c1
110	COc1ccc(C2(c3ccc(-c4ccc(F)cc4)s3)N=C(N)N(C)C2=O)cc1C (centres undefined)
> 250	CCOC(=O)c1nc2c(=O)[nH]c3cc(C(F)(F)F)ccc3n2c1CNCc1ccccc1
284 to 286	Cc1nc2c3cccc(Cl)c3ccn2c1CC(N)=O
148 to 149	COc1cc(OC)nc(Oc2ccc3[nH]c(C)c(C=O)c3c2C(=O)OCc2ccccc2)n1
58 to 59	O=C(NCCc1ccccc1)c1ccccn1
79 to 82.4	COC(=O)c1cccc(/C=C/C(=O)Nc2ccccc2NC(=O)OC(C)(C)C)c1
172 to 174	CN(c1cccc2cc(C3=NCC(CCN)S3)[nH]c12)S(=O)(=O)c1cccs1 (centres undefined)
82 to 83	CN1C(=O)CON(C(=O)OCc2ccccc2)C1c1ccccc1 (centres undefined)
155 to 157	COC(=O)/C=C/c1c(-c2ccc(F)cc2)c2ccccc2n1C(C)C

Second part, the compound before the results:

SMILES	melting point [°C]
CC(=O)NC[C@H]1CN(c2ccc(C3=CN(C(=O)CO)CCC3)c(F)c2)C(=O)O1	171 to 173
CCN1C(=O)CCc2cc(S(=O)(=O)c3cccc([C@@]4(O)CCO[C@@H](C)C4)c3)ccc21	122 to 124
CNC(=O)CC1CN=C(c2cc3cc(Oc4ccc(S(C)(=O)=O)cn4)cc(OC)c3[nH]2)S1 (centres undefined)	207 to 209
COc1ccccc1N1CCN(C2CCN(c3csc4ccccc34)CC2)CC1	156 to 158
COc1c2oc(C)cc2cc2c(C)cc(=O)oc12	154 to 155
ClCCOc1cccc(OCCCl)c1	104 to 105
CC(C)(C)OC(=O)n1ccc2c3[nH]c(CO)nc3ccc21	152
N#Cc1ccc(-c2ccco2)cn1	115 to 116
CS(=O)(=O)Nc1ccc(CCN2CCN(c3ccc(NS(C)(=O)=O)c(F)c3)CC2)cc1	232 to 234
O=C(CN1CCOCC1)N[C@@H](Cc1ccccc1)[C@@H](O)[C@H](O)[C@H](Cc1ccccc1)NC(=O)CN1CCOCC1	172 to 177
CC1Cc2cccc3c4oc(=O)c(Br)c(O)c4c(=O)n1c23 (centres undefined)	221 to 222
NS(=O)(=O)c1ccc(C2=NC3(O)c4ccc(Cl)cc4CC3S2)cc1 (centres undefined)	160
CC(C)=NN=C(N)Nc1c(Cl)cccc1Cl	205 to 210
CCCCN1CC=C(c2cccc3c2CC(=O)N3)CC1	110 to 111
COc1cc2c(cc1OC)-c1ccc(OC)c(OC)c1C2=Cc1ccnc2ccccc12	203 to 205
CC(=O)N1N=C(c2ccc(N)c(C)c2)c2cc3c(cc2C[C@H]1C)OCO3	123 to 130
O=C(O)C1=Cc2cc(Cl)cc(Br)c2OC1C(F)(F)F (centres undefined)	228 to 229
CCCn1cnc(CO)c1C	88 to 88.5
COc1ccc(C(=O)Oc2ccc(C(=O)O)c(C)c2)cc1C12CC3CC(CC(C3)C1)C2	236 to 237
COc1cc(Cl)ccc1N(Cc1cccnc1)S(C)(=O)=O	121 to 123
COC1=NS(=O)(=O)N(C)C(Oc2ccc([N+](=O)[O-])cc2)=N1	220 to 221
O=C1CN(c2ccncc2)CCN1	268 to 270

SMILES	melting point [°C]
CCn1c(=O)c2c(nc(/C=C/c3cc(OC)ccc3OC(C)=O)n2C)n(CC)c1=O	186 to 187
COc1ccc(N2CCN(c3c(C)c(C)c4c(c3C)C(O)(c3ccc5ccccc5c3)C(C)(C)O4)CC2)cc1 (centres undefined)	189 to 190
CC(=O)Nc1ccc(C(=O)OC2C=C(C)C(=O)CC(C)(C)C2O)cc1 (centres undefined)	134 to 135
CCCN(CCC)c1nc2c(N3CCCCCC3)nc(N3CCOCC3)cc2c(=O)[nH]1	250
COc1ccc(S(N)(=O)=O)cc1C(N)=O	178
O=C1N(C(c2ccccc2)c2ccccc2)c2ccccc2C12COc1cc3c(cc12)CCCO3 (centres undefined)	208 to 211
CC12C=CC(=O)CC1CCC1C2CCC2(C)C(C(=O)NC3(C#N)CCCCC3)CCC12 (centres undefined)	292 to 300
OCc1cccc(C(O)(C(F)(F)F)C(F)(F)F)n1	62 to 63
CC(CS(=O)(=O)c1ccccc1)C1CC=C2C3=C(CCC21C)C1(C)CCC(OC(=O)c2ccccc2)C(C)(C)C1CC3 (centres undefined)	175 to 188
COCOc1cc(OC)ccc1Br	40 to 42
COc1ccc2c(c1)COc1c-2ccc2cc(OC)ccc12	175 to 178
O=C1c2c(O)ccc(O)c2C(=O)c2c(NCCN=Cc3ccccc3)ccc(NCCN=Cc3ccccc3)c21	174 to 179
CCCCNC(=O)Oc1cccc(NC(=O)CC(=O)CCC)c1	123
O=C(O)CS(=O)(=O)CCCCCCn1nc(-c2ccccc2)c(-c2ccccc2)c1-c1ccccc1	154 to 155
O=C(Nc1ccc2nc(CN3CCCC3)ccc2c1)c1ccc(-c2ccc(F)cc2)cc1	190 to 193
CCCCCCCCC(=O)Nc1cccc([N+](=O)[O-])c1	63 to 63.5
Nc1ccc2nc3c(=O)[nH][nH]c(=O)c3c(O)c2c1	219 to 221
COc1cc2c(c(OC)c1OC)C1=C(CCC1)C(=O)CC2	101 to 102
CN1CCC(C2(O)c3ccc(F)cc3Sc3ccc(F)cc32)CC1 (centres undefined)	207 to 209
Oc1ccc2ccc(OCc3ccccn3)cc2c1	190 to 193
CCCCCCc1cc2c(cc1/C=C/c1ccc(C(=O)O)s1)C(C)(C)CCC2(C)C	164 to 165
CC1(C#N)CCc2cc(O)c(C(C)(C)C)cc2O1 (centres undefined)	153 to 155

SMILES	melting point [°C]
O=C(CCCC1CCCCC1)C1=C(O)CSC1=O	45 to 50
Cc1nnc2n1-c1sc(Cl)cc1C(c1ccccn1)=NC2	174 to 176
N#Cc1nn(-c2c(Cl)cc(C(F)(F)F)cc2Cl)c(N)c1-c1cccc(Cl)c1	161 to 162
C#CC1(C)OC(=O)Nc2ccc(-c3cccc(Cl)c3)cc21 (centres undefined)	185 to 186
O=C(O)C(Cc1ccccc1)Oc1ccc(-c2ccc(-c3c(Cc4ccccc4)oc4ccccc34)cc2)cc1 (centres undefined)	164 to 166
CCn1cc(C(=O)O)c(=O)c2cc(F)c(N3CCNC(c4ccsc4)C3)cc21 (centres undefined)	198 to 200
COc1ccc2nc(-c3cccc(F)c3)cc(OP(=O)(O)O)c2c1OP(=O)(O)O	120 to 122
COC=C1CCC(c2ccc(C(=O)OC)cc2)CC1 (centres undefined)	58
Cc1cc(-n2cncn2)c2cccc(OCc3c(Cl)ccc(S(=O)(=O)N4CCC[C@H]4C(=O)NCC4CCN(CCCO)CC4)c3Cl)c2n1	136
CCc1nnc2c(N)nc3ccccc3n12	284 to 288
Cc1cc(C#Cc2cn(-c3ccc(F)cc3)c(C)n2)ccn1	151
COc1cc2cc(/C=N\O)sc2cc1OC	211 to 215
O=C(O)c1cn(-c2ccc(SC(F)(F)F)cc2)cn1	247 to 248
N#Cc1ccc(CC2CCN(C(=O)c3ccc(Cl)cc3)CC2)cc1	137 to 139
O=C1CC2CCCCC2C(=O)C1C(=O)c1ccc(Cl)cc1[N+](=O)[O-] (centres undefined)	112
COc1cc(OC)c2c(C)c(C(C)=O)c(=O)oc2c1	166 to 167
CCOC(=O)c1cc(I)c(F)c(F)c1F	33 to 34
O=C(N1CCc2ccc(S(=O)(=O)Cl)cc2C1)C(F)(F)F	104 to 105
CC(=O)Oc1cc(C)ccc1C1CCN(CCCCNC(=O)c2ccc(NC(=O)c3ccc(Cl)cc3)cc2)CC1	210
CCNCC1CCN(c2c(F)cc3c(=O)c(C(=O)O)cn(C4CCC4)c3c2F)C1 (centres undefined)	223 to 225
